Reference: patent publication US20230123588A1, “METHODS OF SLOWING BRAIN VOLUME LOSS” (ACTELION PHARMACEUTICALS LTD, priority 2020, published 2023)

What was measured:
[1] = system: adult subjects with brain volume loss (relapsing multiple sclerosis); experiment: Percent change in brain volume from baseline (MRI, SIENA) in randomized double-blind study of ponesimod vs teriflunomide; type: in vivo, human; settings: for LS Mean difference in percent change in brain volume (Ponesimod 20 mg − Teriflunomide 14 mg) / LS Mean percent change in brain volume from baseline: Week 108; for brain volume loss (BVL) up to EOS: teriflunomide 14 mg
Method: Main analysis set for efficacy: The Full Analysis Set (FAS) included all randomized subjects. Subjects were evaluated according to the treatment they were randomized to.
Efficacy variable/timepoint: The endpoint was brain volume loss up to the end of study (EOS). All available data up to EOS, regardless of treatment discontinuation was included (ITT approach).
Using a mixed model with linear time effect (adjusted for stratification factors, presence/absence of GD+T1 lesions at baseline, and normalized brain volume at baseline), the LS mean percent change from baseline to Week 108 in brain volume was −0.91% in the ponesimod 20 mg group (n=436) and −1.25% in the teriflunomide 14 mg group (n=434). The LS mean difference (ponesimod 20 mg—teriflunomide 14 mg) was 0.34% (95% CLs: 0.17, 0.50; p<0.0001).
Results of the analysis using a repeated measurements ANOVA model (MMRM) were consistent with that described above with respect to the mixed model with linear time effect.

[2] = system: adult subjects with brain volume loss (relapsing multiple sclerosis); experiment: Reasons for premature treatment discontinuation in the study; type: in vivo; settings: for subjects discontinued due to AEs or tolerability related reasons / subjects discontinued due to efficacy related reasons: ponesimod 20 mg, teriflunomide 14 mg
Method: A total of 1468 subjects were screened. Of those, 1133 subjects were randomized (567 to ponesimod 20 mg and 566 to teriflunomide 14 mg) across 162 sites in 28 countries, and 1131 subjects received at least one dose of study drug. The disposition of subjects is summarized in Table 1 and a summary of reasons (primary reason) for treatment discontinuation are shown in Table 2. Overall treatment and study discontinuation were balanced across both treatment arms. A total of 6.5% and 2.5% of the subjects discontinued due to AEs or tolerability related reasons in ponesimod 20 mg and teriflunomide 14 mg, respectively, while 1.9% and 4.3% discontinued due to efficacy related reasons. There were 2 deaths reported during the study—both on teriflunomide 14 mg.

[3] = system: adult subjects with brain volume loss (relapsing multiple sclerosis); settings: human, in vivo
Text: Based on the individual case review, most ALT/AST increases ≥3×ULN occurred as a single transient asymptomatic episode, resolving with continued treatment or after protocol mandated treatment discontinuation. All but one case of bilirubin increase ≥2×ULN occurred in subjects with pre-treatment bilirubin increases. One case of potential Hy's law occurred in a subject with pre-existing transaminase elevation (ALT>5×ULN), and the event fully resolved within 2 weeks after treatment discontinuation.

[4] = system: adult subjects with brain volume loss (relapsing multiple sclerosis); experiment: Treatment-emergent adverse events, AESIs and deaths (Safety Set); type: in vivo, human; settings: Ponesimod 20 mg N = 565, Teriflunomide 14 mg N = 566
Method: The most common AESIs were reported for category hepatobiliary disorders/liver enzyme abnormality (25.7% vs 14.5% in ponesimod 20 mg compared to teriflunomide 14 mg, respectively), followed by category hypertension (10.1% vs 9.0%), and pulmonary events (8.0% vs 2.7%).

[5] = system: adult subjects with brain volume loss (relapsing multiple sclerosis); experiment: Percent change in brain volume from baseline (MRI, SIENA) in randomized double-blind study of ponesimod vs teriflunomide; type: in vivo, human; settings: Week 60
[6] = system: adult subjects with brain volume loss (relapsing multiple sclerosis); experiment: 12-lead ECG heart rate and first-dose monitoring on Day 1; type: in vivo, human; settings: for mean heart rate reduction compared to pre-dose: Day 1, 2-hours post dose, 12-lead ECG, ponesimod 20 mg arm, teriflunomide 14 mg; for subjects with asymptomatic post-dose HR≤40 bpm: Day 1, all had pre-treatment HR<55 bpm
Method: The incidence of treatment-emergent heart rate and rhythm (including hypotension) AESIs on Day 1 was higher in the ponesimod 20 mg arm (2.1%) than in the teriflunomide 14 mg arm (0.4%). However, the overall incidence of first dose AESI on Day 1 was low (2.1%) in ponesimod. None of these events were serious nor led to permanent discontinuation of study treatment. Discharge criteria at 4 hours post-dose were met for ca. 99% of subjects. […] ECG HR effect: nadir at 2 hours post-dose (siponimod—3-4 hours, fingolimod—around by 6 hours). Low incidence of low HR outliers (post-dose HR≤40 bpm), all 3 of them with a pre-treatment HR of <55 bpm, which is a known risk factor for post-dose bradycardia with S1P receptor modulators.
The mean heart rate reduction compared to pre-dose reached a maximum for ponesimod 20 mg at 2-hours post dose, −8.7 bpm compared to −1.7 bpm for teriflunomide 14 mg (FIG. 2).

[7] = other S1P receptor modulators, given for comparison; cited from earlier work
[8] = mixed model with linear time effect
[9] = mixed model with linear time effect, Ponesimod 20 mg (436 subjects), Teriflunomide 14 mg (434 subjects)
[10] = repeated measurements ANOVA model (MMRM)
[11] = repeated measurements ANOVA model (MMRM), Ponesimod 20 mg (418 subjects), Teriflunomide 14 mg (414 subjects)
[12] = ponesimod 20 mg, up to end of study
[13] = Safety Set, Ponesimod 20 mg N = 565, Teriflunomide 14 mg N = 566

Compound	LS Mean percent change in brain volume from baseline [1, 9] [%]	LS Mean percent change in brain volume from baseline [1, 11] [%]	brain volume loss (BVL) up to EOS [1, 12] [%]	Premature discontinuation: Death (number) [2, 13] [n]	Premature discontinuation: Physician decision, Adverse event (number) [2, 13] [n]	Premature discontinuation: Physician decision, Adverse event (percent) [2, 13]	Premature discontinuation: Physician decision, Lack of efficacy/treatment failure (number) [2, 13] [n]	Premature discontinuation: Physician decision, Lack of efficacy/treatment failure (percent) [2, 13]	Premature discontinuation: Pre-specified study treatment discontinuation criteria (number) [2, 13] [n]	Premature discontinuation: Pre-specified study treatment discontinuation criteria (percent) [2, 13]	Premature discontinuation: Subject decision, Efficacy related (number) [2, 13] [n]	Premature discontinuation: Subject decision, Efficacy related (percent) [2, 13]	Premature discontinuation: Subject decision, Tolerability related (number) [2, 13] [n]	Premature discontinuation: Subject decision, Tolerability related (percent) [2, 13]	subjects discontinued due to AEs or tolerability related reasons [2] [%]	subjects discontinued due to efficacy related reasons [2] [%]	proportion of subjects who experienced ALT increase >8×ULN [3] [%]	proportion of subjects who experienced ALT increase ≥3×ULN [3] [%]	Subject with at least one Fatal AE [4]	LS Mean percent change in brain volume from baseline [5, 9] [%]	further results
CCC/N=C1\S/C(=C\c2ccc(OC[C@H](O)CO)c(Cl)c2)C(=O)N1c1ccccc1C [Ponesimod, (R)-5-[3-chloro-4-(2,3-dihydroxy-propoxy)-benz[Z]ylidene]-2-([Z]-propylimino)-3-o-tolyl-thiazolidin-4-one]	−0.91	−0.92	−0.91	0	29	(5.1) %	4	(0.7) %	12	(2.1) %	7	(1.2) %	8	(1.4) %	6.5	1.9	0.7	17.3	0 n (%)	−0.45	LS Mean difference in percent change in brain volume (Ponesimod 20 mg − Teriflunomide 14 mg) [1, 8]: 0.34%; LS Mean difference in percent change in brain volume (Ponesimod 20 mg − Teriflunomide 14 mg) [1, 10]: 0.34%; reduction of brain volume loss up to EOS compared to teriflunomide 14 mg ([1]; ponesimod 20 mg): about 27%; efficacy in slowing brain volume loss over teriflunomide (conclusion) ([1]; ponesimod 20 mg vs teriflunomide 14 mg): superior efficacy; difference in BVL up to EOS, ponesimod 20 mg vs teriflunomide 14 mg ([1]; up to end of study, p<0.0001): 0.34%; LS Mean difference in percent change in brain volume (Ponesimod 20 mg − Teriflunomide 14 mg) [5, 8]: 0.08%; LS Mean difference in percent change in brain volume (Ponesimod 20 mg − Teriflunomide 14 mg) [5, 10]: 0.13%; LS Mean percent change in brain volume from baseline [5, 11]: −0.43%; mean heart rate reduction compared to pre-dose [6]: −8.7 bpm; 2nd or higher degree AV block ([6]; Day 1, first dose): No 2nd or higher degree AV block was observed; subjects meeting discharge criteria at 4 hours post-dose ([6]; Day 1, first dose): ca. 99%; time of ECG HR nadir (maximum mean heart rate reduction) post-dose ([6]; Day 1, first dose): 2 h; subjects with asymptomatic post-dose HR≤40 bpm [6]: 3 subjects
C/C(O)=C(\C#N)C(=O)Nc1ccc(C(F)(F)F)cc1 [Teriflunomide]	−1.25	−1.26	−1.25	2	9	(1.6) %	10	(1.8) %	16	(2.8) %	14	(2.5) %	5	(0.9) %	2.5	4.3	2.1	8.3	2 (0.4) n (%)	−0.53	Premature discontinuation: Death (percent) [2, 13]: (0.4) %; LS Mean percent change in brain volume from baseline [5, 11]: −0.55%; mean heart rate reduction compared to pre-dose [6]: −1.7 bpm; subjects with asymptomatic post-dose HR≤40 bpm [6]: none
CCCCCCCCc1ccc(CCC(N)(CO)CO)cc1 [fingolimod]	–	–	–	–	–	–	–	–	–	–	–	–	–	–	–	–	–	–	–	–	time of ECG HR nadir post-dose [7]: ~6 h
CCc1cc(/C(C)=N/OCc2ccc(C3CCCCC3)c(C(F)(F)F)c2)ccc1CN1CC(C(=O)O)C1 [siponimod]	–	–	–	–	–	–	–	–	–	–	–	–	–	–	–	–	–	–	–	–	time of ECG HR nadir post-dose [7]: 3 to 4 h
